The values that follow come from ChEMBL document CHEMBL4002586, “Aurone Mannich base derivatives as promising multifunctional agents with acetylcholinesterase inhibition, anti-β-amyloid aggragation and neuroprotective properties for the treatment of Alzheimer's disease” (Eur J Med Chem, 2017).

In assay [1] the test system is PC-12. In words: Neuroprotective activity against H2O2-induced damage in rat PC12 cells assessed as increase in cell viability at 100 uM pretreated for 2 hrs followed by H2O2 challenge measured after 24 hrs by MTT assay. Type of assay: functional, cell-based.
The test system of assay [2] is PC-12. In words: Neuroprotective activity against H2O2-induced damage in rat PC12 cells assessed as reduction in LDH release at 100 uM pretreated for 2 hrs followed by H2O2 challenge measured after 24 hrs. It counts as functional, cell-based.

The source made the active and inactive calls. The rule behind the calls is not given here.

In the case of `Cc1c(C)c2c(c(C)c1O)CCC(C)(C(=O)O)O2` (configuration not stated), the result in assay [1] and in assay [2] was Active.
